Test results from US20260015356A1, “ADENOSINE RECEPTOR ANTAGONISTS AND USES THEREOF” (Teon Therapeutics, Inc., priority 2022, published 2026).

Test system: MC38 tumor model
Experiment: MC38 tumor model (fibrosis)
Type: in vivo
Conditions: no dose or method printed

**Q.** `CCCn1c(=O)c2c(nc(-c3cnn(Cc4cccc(C(F)(F)F)c4)c3)n2C(C)=O)n(CC)c1=O` [Compound 1, 7-acetyl-3-ethyl-1-propyl-8-(1-(3-(trifluoromethyl)benzyl)-1H-pyrazol-4-yl)-3,7-dihydro-1H-purine-2,6-dione] was tested. Which “fibrosis in a MC38 tumor model” value did it give?
**A.** reduces fibrosis
